Results: ChEMBL document CHEMBL1255229, “Novel antimicrobial peptides that exhibit activity against select agents and other drug resistant bacteria” (2010)
Values after ≈ are worked out from the molar mass of the structure shown. Starred links: 1 amine or outer side, 2 acyl side, 3 side chain; linkers in the order of their positions; H or OH if unused. Non-standard residues stand in square brackets, D forms with d. Residues, ends and D or L forms follow the SMILES beside them. ξ: configuration not given here. Pro(3ξ,4ξ-(CH2)4) = O=C(O)[C@H]1NCC2CCCCC21; X1 = O=C([C@@H]1CN([*:1])C2CCCCC21)[*:2]; X2 = O=C([C@H]1CN([*:1])C2CCCCC21)[*:2]; Phe(4-F) = N[C@@H](Cc1ccc(F)cc1)C(=O)O; Tic = O=C(O)[C@@H]1Cc2ccccc2CN1; Orn = NCCC[C@H](N)C(=O)O

Key:
Format in all cases: functional
Brucella melitensis = assay: Antimicrobial activity against Brucella melitensis 16 M after 24 hrs
Francisella tularensis = assay: Antimicrobial activity against Francisella tularensis SCHU-S4 after 24 hrs; details: SCHU-S4, 24 h
Burkholderia mallei = assay: Antimicrobial activity against Burkholderia mallei ATCC 23444 after 24 hrs; details: ATCC 23444, 24 h
Acinetobacter baumannii [1] = assay: Antimicrobial activity against Acinetobacter baumannii ATCC 19606 after 24 hrs; details: ATCC 19606 = CIP 70.34 = JCM 6841, 24 h
Bacillus anthracis = assay: Antimicrobial activity against Bacillus anthracis Ames after 24 hrs
Brucella abortus = assay: Antimicrobial activity against Brucella abortus 2308 after 24 hrs; details: Brucella abortus, 2308, 24 h
Staphylococcus aureus = assay: Antimicrobial activity against methicillin-resistant Staphylococcus aureus ATCC 33591 after 24 hrs; details: ATCC 33591, 24 h
Acinetobacter baumannii [2] = assay: Antimicrobial activity against Acinetobacter baumannii WRAIR after 24 hrs
Yersinia pestis = assay: Antimicrobial activity against Yersinia pestis CO92 after 24 hrs; details: CO92, 24 h
Brucella suis = assay: Antimicrobial activity against Brucella suis ATCC 23445 after 24 hrs; details: ATCC 23445, 24 h
[3] = system: Burkholderia pseudomallei; assay: Antimicrobial activity against Burkholderia pseudomallei BURK003(1026b) after 24 hrs

Structure (SMILES) | MIC (Brucella melitensis) [µM] | MIC (Francisella tularensis) [µM] | MIC (Burkholderia mallei) [µM] | MIC (Acinetobacter baumannii [1]) [µM] | MIC (Bacillus anthracis) [µM] | MIC (Brucella abortus) [µM] | MIC (Staphylococcus aureus) [µM] | MIC (Acinetobacter baumannii [2]) [µM] | MIC (Yersinia pestis) [µM] | MIC (Brucella suis) [µM] | MIC [3] [µM]
CC(=O)NCC(=O)N[C@@H](Cc1ccccc1)C(=O)N1Cc2ccccc2C[C@H]1C(=O)N1C[C@@H](C(=O)NCC(=O)N[C@@H](CCCN)C(=O)N2Cc3ccccc3C[C@H]2C(=O)N2C[C@@H](C(=O)NCC(=O)N[C@@H](Cc3ccccc3)C(=O)N3Cc4ccccc4C[C@H]3C(=O)N3C[C@@H](C(=O)NCC(=O)N[C@@H](CCCN)C(=O)N4Cc5ccccc5C[C@H]4C(=O)N[C@@H](CCCN)C(=O)N[C@@H](CCCN)C(=O)N[C@@H](CCCN)C(=O)N[C@@H](CCCN)C(N)=O)C4CCCCC43)C3CCCCC32)C2CCCCC21 (some centres undefined) (Ac-GF[Tic][X1]G[Orn][Tic][X1]GF[Tic][X1]G[Orn][Tic][Orn][Orn][Orn][Orn]-NH2) | 106 (≈ 250 µg/mL) | 106 (≈ 250 µg/mL) | 212 (≈ 500 µg/mL) | 6.6 (≈ 15.6 µg/mL) | 0.82 (≈ 1.93 µg/mL) | 106 (≈ 250 µg/mL) | 53 (≈ 125 µg/mL) | 6.6 (≈ 15.6 µg/mL) | 26.5 (≈ 62.5 µg/mL) | 106 (≈ 250 µg/mL) | 212 (≈ 500 µg/mL)
CC(=O)NCC(=O)N[C@@H](Cc1ccccc1)C(=O)N1C[C@@H](C(=O)N2C[C@H](C(=O)NCC(=O)N[C@@H](CCCCN)C(=O)N3C[C@@H](C(=O)N4C[C@@H](C(=O)NCC(=O)N[C@@H](Cc5ccccc5)C(=O)N5C[C@@H](C(=O)N6C[C@@H](C(=O)NCC(=O)N[C@@H](CCCCN)C(=O)N7Cc8ccccc8C[C@H]7C(=O)N[C@@H](CCCCN)C(=O)N[C@@H](CCCCN)C(=O)N[C@@H](CCCCN)C(=O)N[C@@H](CCCCN)C(N)=O)C7CCCCC76)C6CCCCC65)C5CCCCC54)C4CCCCC43)C3CCCCC32)C2CCCCC21 (some centres undefined) (Ac-GF[X1][X2]GK[X1][X1]GF[X1][X1]GK[Tic]KKKK-NH2) | 207 (≈ 500 µg/mL) | 104 (≈ 251 µg/mL) | 207 (≈ 500 µg/mL) | 3.2 (≈ 7.73 µg/mL) | 26 (≈ 62.8 µg/mL) | 207 (≈ 500 µg/mL) | 207 (≈ 500 µg/mL) | 3.2 (≈ 7.73 µg/mL) | 207 (≈ 500 µg/mL) | 207 (≈ 500 µg/mL) | 207 (≈ 500 µg/mL)
CC(=O)NCC(=O)N[C@@H](Cc1ccc(F)cc1)C(=O)N1Cc2ccccc2C[C@H]1C(=O)N1CC2CCCCC2[C@H]1C(=O)NCC(=O)N[C@@H](CCCCN)C(=O)N1Cc2ccccc2C[C@H]1C(=O)N1CC2CCCCC2[C@H]1C(=O)NCC(=O)N[C@@H](Cc1ccc(F)cc1)C(=O)N1Cc2ccccc2C[C@H]1C(=O)N1CC2CCCCC2[C@H]1C(=O)NCC(=O)N[C@@H](CCCCN)C(=O)N1Cc2ccccc2C[C@H]1C(=O)N[C@@H](CCCCN)C(=O)N[C@@H](CCCCN)C(=O)N[C@@H](CCCCN)C(=O)N[C@@H](CCCCN)C(N)=O (some centres undefined) (Ac-G[Phe(4-F)][Tic][Pro(3ξ,4ξ-(CH2)4)]GK[Tic][Pro(3ξ,4ξ-(CH2)4)]G[Phe(4-F)][Tic][Pro(3ξ,4ξ-(CH2)4)]GK[Tic]KKKK-NH2) | 202 (≈ 500 µg/mL) | 202 (≈ 500 µg/mL) | 202 (≈ 500 µg/mL) | 3.1 (≈ 7.68 µg/mL) | 12.6 (≈ 31.2 µg/mL) | 202 (≈ 500 µg/mL) | 101 (≈ 250 µg/mL) | 6.2 (≈ 15.4 µg/mL) | 202 (≈ 500 µg/mL) | 202 (≈ 500 µg/mL) | 202 (≈ 500 µg/mL)
CC(=O)N[C@@H](CCCCN)C(=O)N[C@@H](CCCCN)C(=O)N[C@@H](CCCCN)C(=O)N[C@@H](CCCCN)C(=O)NCC(=O)N[C@@H](Cc1ccccc1)C(=O)N1Cc2ccccc2C[C@H]1C(=O)N1C[C@@H](C(=O)NCC(=O)N[C@@H](CCCCN)C(=O)N2Cc3ccccc3C[C@H]2C(=O)N2C[C@@H](C(=O)NCC(=O)N[C@@H](Cc3ccccc3)C(=O)N3Cc4ccccc4C[C@H]3C(=O)N3C[C@@H](C(=O)NCC(=O)N[C@@H](CCCCN)C(=O)N4Cc5ccccc5C[C@H]4C(N)=O)C4CCCCC43)C3CCCCC32)C2CCCCC21 (some centres undefined) (Ac-KKKKGF[Tic][X1]GK[Tic][X1]GF[Tic][X1]GK[Tic]-NH2) | 51 (≈ 124 µg/mL) | 51 (≈ 124 µg/mL) | 204 (≈ 498 µg/mL) | 12.8 (≈ 31.2 µg/mL) | 0.4 (≈ 0.976 µg/mL) | 51 (≈ 124 µg/mL) | 102 (≈ 249 µg/mL) | 12.8 (≈ 31.2 µg/mL) | 13.1 (≈ 32 µg/mL) | 25.6 (≈ 62.5 µg/mL) | 204 (≈ 498 µg/mL)
